This is an account of results in article PMC6816037 (Computational and Structural Biotechnology Journal, 2019).

The assay has as its target XIAP-BIR3 (Homo sapiens, UniProt P98170). Briefly: surface plasmon resonance. Type of assay: binding.

Chain of XIAP-BIR3 (P98170 241-356 limits assumed): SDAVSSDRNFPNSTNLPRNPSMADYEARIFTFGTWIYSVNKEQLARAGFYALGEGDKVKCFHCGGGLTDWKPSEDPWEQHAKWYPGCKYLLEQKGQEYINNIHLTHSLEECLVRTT

As to `C[C@@H]1O[C@@H](O[C@H]2[C@H](Oc3cc(O)c4c(c3)O[C@H](c3ccc(O)c(O)c3)CC4=O)O[C@H](CO)[C@@H](O)[C@@H]2O)[C@H](O)[C@H](O)[C@H]1O` [compound 10, neoeriocitrin], the affinity, expressed as Kd, was 13.3 µM.
